What was measured:
Format in all cases: in vivo
[1] = tested on: Amrasca biguttula (leaf hopper); test: Field trials; conditions: unformulated; naturally infested; over time; comparable to commercial insecticides (FIG. 14)
Protocol: (§1) Field trials for peptide SB-P-66, unformulated, against various insects were conducted by third-party organisations PGRO and AgriScience.

Myzus persicae = test: Field trials; conditions: unformulated; comparable to commercial insecticides
Protocol: as §1

bees = test: Bee oral toxicity test (adapted from OECD Test No. 247: Bumblebee, Acute Oral Toxicity Test); conditions: 96 hours after application, compared to Imidacloprid (FIG. 9)
Protocol: Bee oral testing protocol was carried out adapted from OECD Test No. 247: Bumblebee, Acute Oral Toxicity Test. The toxicity of SB-P-66 was compared with a negative control of sucrose or vehicle, and with a current commercial insecticide Imidacloprid.

Aphis fabae = test: Field trials on vining peas (PGRO); conditions: unformulated, naturally infested, comparable to commercial insecticides (FIGS. 10, 13)
Protocol: as §1

Myzus persicae aphids = test: Leaf dip assay (IRAC susceptibility test method 019), mortality assessment; conditions: unformulated, mortality assessed at 72, 96 and 120 hours, compared to vehicle and Spirotetramat (FIGS. 6-8)
Protocol: The assay was carried out based on IRAC susceptibility test method 019 (https://irac-online.org/methods/aphids-adultnymphs/).
Fill a small 4 cm wide 3 cm high dish with a 1% agar treatment solution of the active chemical or control (ensuring 1 cm gap between the agar and the lid) and leave to set. Dip a 2.5 cm leaf disc into 3 ml of treatment solution allowing the treatment to coat the leaf. Leave the disc to dry for 1 hour and place onto the set agar. Place insects (Myzus persicae aphids) onto each of the leaf discs. Each unit is sealed with a close-fitting, ventilated lid. Place the agar dishes in a small plastic tray lined with moist tissue paper and ensure the water trays in the bottom of the incubator are filled with clean water and place within the incubator. An assessment of mortality is made at 72, 96 and 120 hours. Leaf dip assays were performed with SB-P-66, and compared to a negative control vehicle and a current commercial insecticide Spirotetramat. The activity of SB-P-66 is shown in FIGS. 6 and 7; SB-P-66 has good activity whilst being eco-friendly and targeted to specific pests unlike broad spectrum chemical insecticides such as Spirotetramat.

Aphis gossypii = test: Field trials on cotton and melon (AgriScience); conditions: unformulated, naturally infested, comparable to commercial insecticides (FIGS. 11, 12)
Protocol: as §1

H-PAFSSWG-NH2 [SB-P-66, [Hy]-PAFSSWG-[NH2]]
efficacy in field trials against Amrasca biguttula [1]: good efficacy | efficacy in field trials against Myzus persicae (Myzus persicae): good efficacy | bee oral toxicity (% survival) (bees): far lower toxicity | efficacy in field trials against Aphis fabae (Aphis fabae): good efficacy | activity against Myzus persicae (mortality) (Myzus persicae aphids): good activity | efficacy in field trials against Aphis gossypii (Aphis gossypii): good efficacy
